Among the data in patent US11358952B2, “Substituted 4-aminoisoindoline-1,3-dione compounds, compositions thereof, and methods of treatment therewith” (Celgene Corporation, priority 2018, dated 2022) are IC50 values, retold here.

This experiment concerns SU-DHL-4 cell line. The experiment is described as follows: SU-DHL-4 cell proliferation assay (Cell Titer-Glo viability). The class given is cell-based. Particulars: Homo sapiens; cell viability IC50 activity level, DLBCL cell line SU-DHL-4, 120 hours post-treatment; read-out: SU-DHL-4 Act. As for the experimental part: SU-DHL-4 Cell Proliferation Assay.
The following is an example of an assay that can be used to determine the anti-proliferative activity of Isoindolinedione Compounds in a DLBCL cell line, for example, the SU-DHL-4 cell line (Deutsche Sammlung von Mikroorganismen and Zellkulturen GmbH [DSMZ]: catalogue number ACC-495) at 120 hours post-treatment. The seeding density for SU-DHL-4 can be optimized to ensure assay linearity in 1536-well plates.
Increasing concentrations of test compounds (0.5 nM to 10 μM) were spotted in a 20-point dilution fashion (unevenly spaced data points) via an acoustic dispenser (EDC ATS-100) into an empty 1536-well plate. The DMSO concentration was kept constant for a final assay concentration of 0.1% DMSO. Prior to testing, SU-DHL-4 cells were grown in RPMI-1640 (Roswell Park Memorial Institute—1640) medium with 10% FBS (fetal bovine serum: HyClone) and expanded in culture flasks to provide sufficient amounts of starting material. Cells were then diluted to 500 cells per well in a 5 μL volume, and added directly to the compound-spotted 1536-well plates. Cells were allowed to grow for 120 hours in 5% CO2 at 37° C. At the time when exposure of cells to compound began (to), initial viable cell number was assessed via Cell Titer-Glo® Luminescent Cell Viability Assay at a 1 vol:2 vol ratio according to manufacturer's instructions (Promega Corporation, Madison, Wis.) by quantifying the level of luminescence generated by adenosine-5′-triphosphate (ATP) present in viable cells. After 120 hours, cell viability of the treated cells was assessed via Cell Titer-Gb® and read for luminescence. All growth inhibition curves were processed and evaluated using Activity Base (IDBS, Alameda, Calif.). Cell viability IC50 values were calculated using a four parameter logistic model (sigmoidal dose-response model): y=(A+((B−A)/(1+((C/x)^D)))) wherein: A=YMin B=YMax C=EC50 D=Hill slope IC50=the concentration of the compound when Y=50% of DMSO control Y=cell viability measured as luminescence unit, and x=concentration of compound.
A general note: In ATP-based viability assays light output follows the ATP content of the culture.
Take `Cc1cc(CNc2cccc3c2C(=O)N(C2CCC(=O)NC2=O)C3=O)ccc1CN1CCC(OC(C)(C)C)CC1` (centres unmarked) [Cpd 87, 4-(4-((4-tert-butoxypiperidin-1-yl)methyl)-3-methylbenzylamino)-2-(2,6-dioxopiperidin-3-yl)isoindoline-1,3-dione]: the IC50 is under 0.2 µM.

As for `Cc1cncc(N2CCN(Cc3ccc(CNc4cccc5c4C(=O)N(C4CCC(=O)NC4=O)C5=O)cc3)CC2)n1` (centres unmarked) [Cpd 186, 2-(2,6-dioxopiperidin-3-yl)-4-(4-((4-(6-methylpyrazin-2-yl)piperazin-1-yl)methyl)benzylamino)isoindoline-1,3-dione], the IC50 lay in the range of 0.751 to 1 µM.

`O=C1CCC(N2C(=O)c3cccc(NCc4ccc(CN5CCC(C6CCOCC6)CC5)cc4F)c3C2=O)C(=O)N1` (centres unmarked) [Cpd 215, 2-(2,6-dioxopiperidin-3-yl)-4-(2-fluoro-4-((4-(tetrahydro-2H-pyran-4-yl)piperidin-1-yl)methyl)benzylamino)isoindoline-1,3-dione]: the IC50 was under 0.2 µM.

As for `O=C1CCC(N2C(=O)c3cccc(NCc4ccc(CN5CCN(c6ccc(Cl)cn6)CC5)cc4)c3C2=O)C(=O)N1` (centres unmarked) [Cpd 18, 4-(4-((4-(5-chloropyridin-2-yl)piperazin-1-yl)methyl)benzylamino)-2-(2,6-dioxopiperidin-3-yl)isoindoline-1,3-dione], the IC50 fell in the range of 0.751 to 1 µM.

On to `O=C1CCC(N2C(=O)c3cccc(NCc4ccc(CN5CC(c6ccccc6)C5)cc4)c3C2=O)C(=O)N1` (centres unmarked) [Cpd 6, 2-(2,6-dioxopiperidin-3-yl)-4-(4-((3-phenylazetidin-1-yl)methyl)benzylamino)isoindoline-1,3-dione], for which the IC50 is 0.501 to 0.75 µM.

For `NC(=O)c1ncccc1N1CCN(Cc2ccc(CNc3cccc4c3C(=O)N(C3CCC(=O)NC3=O)C4=O)c(F)c2)CC1` (centres unmarked) [Cpd 180, 3-(4-(4-((2-(2,6-dioxopiperidin-3-yl)-1,3-dioxoisoindolin-4-ylamino)methyl)-3-fluorobenzyl)piperazin-1-yl)picolinamide], the IC50 is 0.2 to 0.5 µM.

Regarding `Cc1cc(CNc2cccc3c2C(=O)N(C2CCC(=O)NC2=O)C3=O)ccc1CN1CC2(CCCO2)C1` (centres unmarked) [Cpd 232, 4-(4-(5-oxa-2-azaspiro[3.4]octan-2-ylmethyl)-3-methylbenzylamino)-2-(2,6-dioxopiperidin-3-yl)isoindoline-1,3-dione], the IC50 is under 0.2 µM.

For `CC1(C)CN(C2CN(Cc3ccc(CNc4cccc5c4C(=O)N(C4CCC(=O)NC4=O)C5=O)c(F)c3)C2)CCO1` (centres unmarked) [Cpd 245, 4-(4-((3-(2,2-dimethylmorpholino)azetidin-1-yl)methyl)-2-fluorobenzylamino)-2-(2,6-dioxopiperidin-3-yl)isoindoline-1,3-dione], the IC50 was under 0.2 µM.

Take `NC(=O)c1ccc(N2CCN(Cc3ccc(CNc4cccc5c4C(=O)N([C@@H]4CCC(=O)NC4=O)C5=O)c(F)c3)CC2)nc1` [Cpd 206, (R)-6-(4-(4-((2-(2,6-dioxopiperidin-3-yl)-1,3-dioxoisoindolin-4-ylamino)methyl)-3-fluorobenzyl)piperazin-1-yl)nicotinamide]: the IC50 was under 0.2 µM.

As to `O=C1CCC(N2C(=O)c3cccc(NCc4ccc(CN5CCOCC5)cc4F)c3C2=O)C(=O)N1` (centres unmarked) [Cpd 154, 2-(2,6-dioxopiperidin-3-yl)-4-(2-fluoro-4-(morpholinomethyl)benzylamino) isoindoline-1,3-dione], the IC50 was 0.2 to 0.5 µM.

Consider `NC(=O)c1ccc(N2CCN(Cc3ccc(CNc4cccc5c4C(=O)N([C@H]4CCC(=O)NC4=O)C5=O)c(F)c3)CC2)nc1` [Cpd 207, (S)-6-(4-(4-((2-(2,6-dioxopiperidin-3-yl)-1,3-dioxoisoindolin-4-ylamino)methyl)-3-fluorobenzyl)piperazin-1-yl)nicotinamide], for which the IC50 is under 0.2 µM.

Turning to `O=C1CCC(N2C(=O)c3cccc(NCc4ccc(CN5CCC(OC(F)(F)F)CC5)cc4)c3C2=O)C(=O)N1` (centres unmarked) [Cpd 123, 2-(2,6-dioxopiperidin-3-yl)-4-(4-((4-(trifluoromethoxy)piperidin-1-yl)methyl)benzylamino)isoindoline-1,3-dione], the IC50 is 0.2 to 0.5 µM.

For `NC(=O)c1ccc(N2CCN(Cc3ccc(CNc4cccc5c4C(=O)N(C4CCC(=O)NC4=O)C5=O)cc3)CC2)cc1` (centres unmarked) [Cpd 57, 4-(4-(4-((2-(2,6-dioxopiperidin-3-yl)-1,3-dioxoisoindolin-4-ylamino)methyl)benzyl)piperazin-1-yl)benzamide], the IC50 was under 0.2 µM.

For the compound `Cc1cc(CNc2cccc3c2C(=O)N(C2CCC(=O)NC2=O)C3=O)ccc1CN1CCC2(CCOC2)CC1` (centres unmarked) [Cpd 233, 4-(4-(2-oxa-8-azaspiro[4.5]decan-8-ylmethyl)-3-methylbenzylamino)-2-(2,6-dioxopiperidin-3-yl)isoindoline-1,3-dione], the IC50 is under 0.2 µM.

As for `Cc1cc(CNc2cccc3c2C(=O)N(C2CCC(=O)NC2=O)C3=O)ccc1CN1CC(c2ccc(C#N)cc2)C1` (centres unmarked) [Cpd 51, 4-(1-(4-((2-(2,6-dioxopiperidin-3-yl)-1,3-dioxoisoindolin-4-ylamino)methyl)-2-methylbenzyl)aetidin-3-yl)benzonitrile], the IC50 was under 0.2 µM.

Consider `O=C1CCC(N2C(=O)c3cccc(NCc4ccc(CN5CC(N6C7CCC6COC7)C5)cc4F)c3C2=O)C(=O)N1` (centres unmarked) [Cpd 246, 4-(4-((3-(3-oxa-8-azabicyclo[3.2.1]octan-8-yl)azetidin-1-yl)methyl)-2-fluorobenzylamino)-2-(2,6-dioxopiperidin-3-yl)isoindoline-1,3-dione], for which the IC50 was under 0.2 µM.

On to `Cc1cc(CNc2cccc3c2C(=O)N(C2CCC(=O)NC2=O)C3=O)ccc1CN1CC(Oc2ccccc2)C1` (centres unmarked) [Cpd 82, 2-(2,6-dioxopiperidin-3-yl)-4-(3-methyl-4-((3-phenoxyazetidin-1-yl)methyl)benzylamino)isoindoline-1,3-dione], for which the IC50 lay within 0.501 to 0.75 µM.

Regarding `N#Cc1ccc(N2CCN(Cc3ccc(CNc4cccc5c4C(=O)N(C4CCC(=O)NC4=O)C5=O)cc3)CC2)c(F)c1` (centres unmarked) [Cpd 28, 4-(4-(4-((2-(2,6-dioxopiperidin-3-yl)-1,3-dioxoisoindolin-4-ylamino)methyl)benzyl)piperazin-1-yl)-3-fluorobenzonitrile], the IC50 is under 0.2 µM.

With `O=C1CCC(N2C(=O)c3cccc(NCc4ccc(CN5CCN(c6ccc(F)cc6F)CC5)cc4F)c3C2=O)C(=O)N1` (centres unmarked) [Cpd 108, 4-(4-((4-(2,4-difluorophenyl)piperazin-1-yl)methyl)-2-fluorobenzylamino)-2-(2,6-dioxopiperidin-3-yl)isoindoline-1,3-dione], the IC50 is under 0.2 µM.

Regarding `COc1cc(N2CCN(Cc3ccc(CNc4cccc5c4C(=O)N(C4CCC(=O)NC4=O)C5=O)cc3)CC2)ncn1` (centres unmarked) [Cpd 136, 2-(2,6-dioxopiperidin-3-yl)-4-(4-((4-(6-methoxypyrimidin-4-yl)piperazin-1-yl)methyl)benzylamino)isoindoline-1,3-dione], the IC50 was in the range of 0.751 to 1 µM.

Take `Cc1cc(CNc2cccc3c2C(=O)N(C2CCC(=O)NC2=O)C3=O)ccc1CN1CC(N2CCOCC2(C)C)C1` (centres unmarked) [Cpd 238, 4-(4-((3-(3,3-dimethylmorpholino)azetidin-1-yl)methyl)-3-methylbenzylamino)-2-(2,6-dioxopiperidin-3-yl)isoindoline-1,3-dione]: the IC50 is under 0.2 µM.

In the case of `Cc1cc(CNc2cccc3c2C(=O)N(C2CCC(=O)NC2=O)C3=O)ccc1CN1CC2(CCOCC2)C1` (centres unmarked) [Cpd 220, 4-(4-(7-oxa-2-azaspiro[3.5]nonan-2-ylmethyl)-3-methylbenzylamino)-2-(2,6-dioxopiperidin-3-yl)isoindoline-1,3-dione], the IC50 is under 0.2 µM.

As for `CCc1nnc(N2CCN(Cc3ccc(CNc4cccc5c4C(=O)N(C4CCC(=O)NC4=O)C5=O)cc3)CC2)o1` (centres unmarked) [Cpd 198, 2-(2,6-dioxopiperidin-3-yl)-4-(4-((4-(5-ethyl-1,3,4-oxadiazol-2-yl)piperazin-1-yl)methyl)benzylamino)isoindoline-1,3-dione], the IC50 was in the range of 0.751 to 1 µM.

Turning to `Cc1cc(CN2CCN(c3ccc(F)cc3F)CC2)ccc1CNc1cccc2c1C(=O)N(C1CCC(=O)NC1=O)C2=O` (centres unmarked) [Cpd 101, 4-(4-((4-(2,4-difluorophenyl)piperazin-1-yl)methyl)-2-methylbenzylamino)-2-(2,6-dioxopiperidin-3-yl)isoindoline-1,3-dione], the IC50 was 0.2 to 0.5 µM.

Turning to `O=C1CCC(N2C(=O)c3cccc(NCc4ccc(CN5CCC6(CCCO6)CC5)cc4F)c3C2=O)C(=O)N1` (centres unmarked) [Cpd 144, 4-(4-(1-oxa-8-azaspiro[4.5]decan-8-ylmethyl)-2-fluorobenzylamino)-2-(2,6-dioxopiperidin-3-yl)isoindoline-1,3-dione], the IC50 is under 0.2 µM.

Turning to `NC(=O)c1ccc(N2CCN(Cc3ccc(CNc4cccc5c4C(=O)N(C4CCC(=O)NC4=O)C5=O)cc3)CC2)cn1` (centres unmarked) [Cpd 17, 5-(4-(4-((2-(2,6-dioxopiperidin-3-yl)-1,3-dioxoisoindolin-4-ylamino)methyl)benzyl)piperazin-1-yl)picolinamide], the IC50 is under 0.2 µM.
